# Assay results from US11718609B2, “Heparanase inhibitors and use thereof” (Beta Therapeutics Pty Ltd, priority 2016, dated 2023).
# Key:
# [1] = molecular target: Recombinant human active heparanase (Homo sapiens (Human), UniProt Q9Y251); assay: Heparanase inhibition assay (colorimetric, fondaparinux substrate, WST-1 detection); type: biochemical; conditions: for IC50: average ± SEM, direct comparison to OGT_2115, read-out: Average IC50 (μM ± SEM), heparanase enzyme inhibition
# Procedure: Recombinant human active heparanase derived from Chinese hamster ovary cells was from R&D Systems. […] Following initiation of the reaction by addition of fondaparinux, the plate was sealed with adhesive film and incubated at 37° C. for 20-24 h. […] For the enzymatic assays, test compounds were dissolved and added to the assay at varying concentrations to calculate the level of inhibition.
# Heparanase inhibition activity of various compounds of the invention was determined using standard methods.
# [2] = test system: C57BL6J mice; assay: Photo-oxidative damage of the retina, retinal function by electroretinography (ERG); conditions: intravitreal injection 1 μL of 200 μM, 5 days photo-oxidative damage
# Excerpt: Significant trends in data points were ascertained using the one-way or two-way analysis of variance (ANOVA) to determine statistical significance (p<0.05) that is indicated by asterisks (*).
# C57BL6J mice were born and raised in 12:12 hrs light:dark cycle of 5 lux in individually vented cages, with free access to food and water. Age-matched adult mice (8-10 weeks) were randomly assigned to light damage and dim-reared control (non-light damage) groups. Animals of the light damage group were continuously exposed to 100 k lux white LED light for 1, 3, 5 and 7 days. […] Dim-reared control animals were also pupil dilated twice each day, but were returned to dim cyclic light (12:12 hrs light:dark, 5 lux light).
# During bright-light exposure, animals were housed in plastic boxes (two per box), with free access to food and water. The floors of the cages were coated with a reflective Perspex surface and illuminated by a 100-W 65000 k natural white LED (high CRI LED, Yuji, Beijing) mounted 18 cm above the plastic boxes. The LED light has an emission spectrum which more closely resembles daylight than halogen or incandescent bulbs. […] Animals were provided with bedding, food and water during the time course of light exposure, and their behaviour was monitored daily. […]
# [3] = cited from earlier work
# [4] = test system: db/db mice; assay: Intra-islet heparan sulfate content in db/db mice (Alcian blue staining, morphometric analysis); type: in vivo, mouse; conditions: 50 mg/kg daily IP
# Procedure: FIG. 6. Intra-islet HS content in pancreas sections in treated db/db mice. Mice were treated daily with 50 mg/kg PI-88 IP from 4 weeks of age. Onset of clinical diabetes was determined by measuring urine glucose twice weekly with Multistix reagent strips and confirmed by measuring non-fasting blood glucose levels in tail vein blood using a MediSense glucometer with hyperglycemia defined as 2 consecutive blood glucose readings of 16 mmol/l or greater. Islet HS was detected by Alcian blue staining.
# db/db mice were treated with saline or 50 mg/kg of PI-88 daily by intraperitoneal injection. At the cessation of treatment pancreatic islets were isolated and stained with alcian blue to visualise heparan sulfate and the heparan sulfate content of the islets was assessed by quantitative morphometric analyses.
# [5] = test system: db/db mice; assay: Insulin content of pancreatic islets in db/db mice (anti-insulin staining, morphometric analysis); type: in vivo, mouse; conditions: 50 mg/kg daily IP
# Procedure: FIG. 5. Insulin content in pancreas sections in db/db mice a model of Type 2 diabetes. Mice were treated daily with 50 mg/kg PI-88 IP from 4 weeks of age. Onset of clinical diabetes was determined by measuring urine glucose twice weekly with Multistix reagent strips and confirmed by measuring non-fasting blood glucose levels in tail vein blood using a MediSense glucometer with hyperglycemia defined as 2 consecutive blood glucose readings of 16 mmol/l or greater. Insulin was detected by anti-insulin antibody staining.
# The db/db mouse has defective leptin signalling resulting from a point mutation in the leptin receptor gene. Plasma insulin levels become elevated very early in life (10-14 days of age), and the affected animals are obese by the time they are 3-4 weeks old. The animals are insulin resistant, hypertriglyceridemic, and have impaired glucose tolerance.
# db/db mice were treated with saline or 50 mg/kg of PI-88 by daily intraperitoneal injection. At the cessation of treatment pancreatic islets were isolated and stained for insulin and the level of insulin expression assessed by quantitative morphometric analyses.
# Sequence of Recombinant human active heparanase (Q9Y251 158-543): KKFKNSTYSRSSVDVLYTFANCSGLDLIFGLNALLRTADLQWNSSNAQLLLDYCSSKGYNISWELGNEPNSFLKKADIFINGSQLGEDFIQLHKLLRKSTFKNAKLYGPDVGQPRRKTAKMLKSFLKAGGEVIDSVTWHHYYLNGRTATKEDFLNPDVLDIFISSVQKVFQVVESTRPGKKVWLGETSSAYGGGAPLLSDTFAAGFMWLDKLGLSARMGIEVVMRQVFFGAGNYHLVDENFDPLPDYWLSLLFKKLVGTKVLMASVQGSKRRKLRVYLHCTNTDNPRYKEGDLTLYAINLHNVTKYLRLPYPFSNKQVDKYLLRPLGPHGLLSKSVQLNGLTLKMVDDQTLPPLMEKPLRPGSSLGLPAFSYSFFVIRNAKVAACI
# Sequence of Recombinant human active heparanase (Q9Y251 36-109): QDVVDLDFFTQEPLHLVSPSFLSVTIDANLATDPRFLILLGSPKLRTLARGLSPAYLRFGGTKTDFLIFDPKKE
compound,measurement,setting,value
COc1cc2nc(-c3cccc4cccnc34)nc(NCCc3ccccc3)c2cc1OC [BT2164],IC50,[1],3.13 ± 0.72 µM
COc1cc2nc(NCCNC(=O)c3nnc(-c4cc5ccccc5[nH]4)o3)nc(N)c2cc1OC [BT2169],IC50,[1],4 ± 0.09 µM
COc1cc2nc(NCCNC(=O)c3nnc(-c4ccccc4)o3)nc(N)c2cc1OC.Cl [BT2172],ERG a-wave and b-wave responses versus control (PBS),[2],higher a- and b-wave responses than the control (PBS) group
same,retinal function (ERG),[2],maintained retinal function
COc1cc2nc(-c3cccc4cccnc34)nc(NCCNC(=O)c3nnc(-c4ccccc4)o3)c2cc1OC [BT2187],IC50,[1],3.64 ± 0.62 µM
"COc1cc2nc(N3CCN(C(=O)C4COc5ccccc5O4)CC3)nc(N)c2cc1OC (stereo not drawn) [doxazosin, reference compound]",heparanase inhibition (in words),[1],inhibits heparanase
PI-88,half-life,[3],approximately 30 minutes
same,islet heparan sulfate levels,[4],increased compared to the saline treated db/db mice and are near to the levels of heparan sulfate in the islets of wild-type mice
same,expression of insulin in islets,[5],increased compared to the saline treated db/db mice and is near to the level of insulin expression in the wild-type mice
